Measurements: patent publication US7288566B2, “N-hydroxyformamidine derivatives” (Taisho Pharmaceutical Co., Ltd., priority 2002, dated 2007)

Target: Human Kidney Microsome-derived 20-HETE-producing Enzyme
Experiment: Inhibitory effect against human kidney microsome-derived 20-HETE-producing enzyme
Format: biochemical
Conditions: human kidney microsomal fraction, tritium-arachidonic acid substrate, NADPH, 37° C. for 1.5 hours, pH 7.4; read-out: IC50 (50% inhibition of 20-HETE production)
Experimental: Inhibitory Effect Against Human Kidney Microsome-derived 20-HETE-producing Enzyme
The compounds listed in the table above were tested for their inhibitory effect against 20-HETE production.
This test was performed as described in J. Pharmacol. Exp. Ther., vol. 268, p. 474, 1994.
A test drug solution adjusted with DMSO to 1 μM was added to 50 mM 3-morpholinopropanesulfonate (MOPS) buffer (pH 7.4) containing 5 mM magnesium chloride and 1 mM ethylenediaminetetraacetic acid disodium salt (EDTA). The resulting mixture was further supplemented with a human kidney microsomal fraction (Human Cell Culture Center, Anatomic Gift Foundation) as an enzyme source, [5,6,8,9,11,12,14,15]tritium-arachidonic acid as a substrate, and NADPH as a coenzyme, followed by reaction at 37° C. for 1.5 hours. After addition of formic acid to stop the reaction, the reaction mixture was supplemented with acetonitrile (final concentration: 50%). The level of 20-HETE production was measured by high performance liquid chromatography using an ODS column (Biosil C18, BioRad Laboratories) and a radioisotope detector. Assuming that the level of 20-HETE production in the absence of a test compound was set to 100%, the concentration required for the test compound to cause 50% inhibition of 20-HETE production was calculated (IC50 value).

IC50: 0.0105 µM
Compound: CN(C)CC(C)(C)CCc1ccc(N/C=N/O)cc1 [Example 1, N-[4-(4-N,N-dimethylamino-3,3-dimethyl-butyl)phenyl]-N′-hydroxyformamidine]
